Data from PubChem BioAssay (NCI).
Several values for one entry are separate records, joined by “and”; a condition that tells them apart may be missing. Identical values can stand only once.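 Assay format: 96-well plates, 48-hour exposure. GI50: concentration for 50% inhibition of growth. Definition used: TGI = concentration required for complete inhibition of growth.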

Legend:
Experiment in all cases: NCI tumour cell line growth inhibition, 48 h
[1] = tested on: SN12K1 renal
[2] = tested on: DLD-1 colon
[3] = tested on: HOP-18 NSCLC
[4] = tested on: KM20L2 colon
[5] = tested on: P388/ADR leukemia
[6] = tested on: P388 leukemia
[7] = tested on: RXF-631 renal

Structure (SMILES)	TGI [1] [µM]	TGI [2]	TGI [3]	TGI [4]	TGI [5] [µM]	GI50 [2]	GI50 [4]	TGI [6] [µM]	TGI [7] [µM]
C=C1C(O)C2(O)OCC34C(CC5C(C)=CC(=O)C(O)C5(C)C23)OC(=O)C(OC(=O)C/C=C/CCCCCCCC)C14 (configuration not stated)	0.022	0.0287 µM	1.1 µM	0.31 µM	0.278				
C#C[C@]1(O)CC[C@H]2[C@@H]3CCc4cc(O)ccc4[C@H]3CC[C@@]21C		60.7 µM	> 100 µM	38.9 µM					
O=c1c2cc(O)ccc2n2nnc3ccc(NCCNCCO)c1c32		> 100 µM and 40.7 µM	> 100 µM and 69.1 µM	> 100 µM and 44.9 µM		23.9 µM and 6.6 µM	27.1 µM and 13.4 µM		
O=P(NCCCO)(OCc1ccccc1)N(CCCl)CCCl (configuration not stated)	> 100	> 31.6 µM	> 100 µM	> 100 µM	> 100			> 100	
COc1ccc(CCn2cncn2)cc1		> 100 µM		> 100 µM					> 100
